The test system of one assay is LNCAP cells. As to the kind of experiment: Inhibition of R1881 stimulated cell growth in LNCAP cells (CellTiter-Glo). The format is cell-based. As to conditions: Homo sapiens, 144 h, 10% CSS, 6 days. As for the experimental part:
(§1) LNCAP and VCAP cells were seeded in 96-well plates at 5000 (LNCAP) and 6000 (VCAP) cells/well in phenol red-free RPM11640 supplemented with 10% charcoal stripped serum (CSS), and then incubated at 37° C. overnight. The following day, the test compound was administered to the cells by using 1000× compound stock solution prepared in DMSO at various concentrations. 1000× compound stock solution was first diluted 1:100 in phenol red-free RPM11640 supplemented with 10% CSS and 1 nM R1881 to prepare the 10× treatment solutions containing serial dilutions of AC176 together in the presence of 1 nM, and then 10 uL compound medium was added to each well in the cell plates. After administration of the compound, the cells were then incubated at 37° C. for 6 days. Upon completion, the plates were equilibrated at room temperature for approximately 10 minutes. 100 ul of CellTiter-Glo® 3D Reagent (Promega) was added to each well. The plates were then incubated at room temperature for 30 minutes and luminescence was recorded by EnSpire plate reader (PerkinElmer). The results are shown in Table 5, which summarizes the growth inhibition (G150) in LNCAP and VCAP cells with exemplary compounds of the present disclosure.
(In general: ATP-based viability assays read luminescence as a measure of living cells.)

Another assay has as its system VCAP cells. As to the kind of experiment: Inhibition of R1881 stimulated cell growth in VCAP cells (CellTiter-Glo). The format is cell-based. To be noted: Homo sapiens, 144 h, 10% CSS, 6 days. As for the experimental part: as §1

Molecules are shown by their SMILES. Bounds are passed on as bounds.

Usually GI50 stands for the concentration at which growth is held to half of that of the control. As to `Cn1ccc(=O)c2c(O[C@H]3C(C)(C)[C@H](NC(=O)c4ccc(N5CCC(CN6CCN(c7ccc8c(c7)CN([C@H]7CCC(=O)NC7=O)C8=O)CC6)CC5)cc4)C3(C)C)ccc(C#N)c21` [Compound 39, N-((1,3-trans)-3-((8-cyano-1-methyl-4-oxo-1,4-dihydroquinolin-5-yl)oxy)-2,2,4,4-tetramethylcyclobutyl)-4-(4-((4-(2-((S)-2,6-dioxopiperidin-3-yl)-1-oxoisoindolin-5-yl)piperazin-1-yl)methyl)piperidin-1-yl)benzamide], the GI50 in the assay on LNCAP cells and in the assay with VCAP cells was no more than 50 nM throughout.

Take `CC1(C)C(NC(=O)c2ccc(N3CCC(CN4CCN(c5ccc6c(c5)CN([C@H]5CCC(=O)NC5=O)C6=O)CC4)CC3)cc2)C(C)(C)C1Oc1ccc(C#N)c2[nH]ccc(=O)c12` (stereo partly drawn) [Compound 30, N-((1,3-trans)-3-((8-cyano-4-oxo-1,4-dihydroquinolin-5-yl)oxy)-2,2,4,4-tetramethylcyclobutyl)-4-(4-((4-(2-((S)-2,6-dioxopiperidin-3-yl)-1-oxoisoindolin-5-yl)piperazin-1-yl)methyl)piperidin-1-yl)benzamide]: the GI50 in the assay on LNCAP cells and with VCAP cells was no more than 50 nM in each case.

For the compound `CC1(C)C(NC(=O)c2ccc(N3CCC(CN4CCN(c5ccc6c(=O)n(C7CCC(=O)NC7=O)ncc6c5)CC4)CC3)cc2)C(C)(C)C1Oc1ccc(C#N)c2[nH]c(=O)ccc12` (stereo not drawn) [Compound 49, N-((1,3-trans)-3-((8-cyano-2-oxo-1,2-dihydroquinolin-5-yl)oxy)-2,2,4,4-tetramethylcyclobutyl)-4-(4-((4-(2-(2,6-dioxopiperidin-3-yl)-1-oxo-1,2-dihydrophthalazin-6-yl)piperazin-1-yl)methyl)piperidin-1-yl)benzamide], the GI50 is greater than 500 nM in the assay on LNCAP cells and 50 to 500 nM with VCAP cells.

On to `CC1(C)[C@H](NC(=O)c2ccc(N3CCC(CN4CCN(c5ccc6c(c5)CN([C@H]5CCC(=O)NC5=O)C6=O)CC4)CC3)c(F)c2)C(C)(C)[C@H]1Oc1ccc(C#N)c2[nH]c(=O)ccc12` [Compound 16, N-((1,3-trans)-3-((8-cyano-2-oxo-1,2-dihydroquinolin-5-yl)oxy)-2,2,4,4-tetramethylcyclobutyl)-4-(4-((4-(2-((S)-2,6-dioxopiperidin-3-yl)-1-oxoisoindolin-5-yl)piperazin-1-yl)methyl)piperidin-1-yl)-3-fluorobenzamide], for which the GI50 in the assay with LNCAP cells and in the assay on VCAP cells was no more than 50 nM in each case.

On to `CC1(C)C(NC(=O)c2ccc(N3CCC(CN4CCN(c5ccc6c(c5)CN([C@H]5CCC(=O)NC5=O)C6=O)CC4)CC3)cc2)C(C)(C)C1Oc1ccc(C#N)c2[nH]c(=O)ccc12` (stereo partly drawn) [Compound 18, N-((1,3-trans)-3-((8-cyano-2-oxo-1,2-dihydroquinolin-5-yl)oxy)-2,2,4,4-tetramethylcyclobutyl)-4-(4-((4-(2-((S)-2,6-dioxopiperidin-3-yl)-1-oxoisoindolin-5-yl)piperazin-1-yl)methyl)piperidin-1-yl)benzamide], for which the GI50 with LNCAP cells and in the assay on VCAP cells was no more than 50 nM in each case.

On to `Cn1c(=O)ccc2c(OC3C(C)(C)C(NC(=O)c4ccc(N5CCC(CN6CCN(c7ccc8c(c7)CN([C@H]7CCC(=O)NC7=O)C8=O)CC6)CC5)cc4)C3(C)C)ccc(C#N)c21` (stereo partly shown) [Compound 34], for which the GI50 in the assay with LNCAP cells and in the assay with VCAP cells was no more than 50 nM throughout.

Regarding `CC1(C)C(NC(=O)c2ccc(N3CCC(CN4CCN(c5ccc(C(=O)N[C@H]6CCC(=O)NC6=O)nc5)CC4)CC3)cc2)C(C)(C)C1Oc1ccc(C#N)c2[nH]c(=O)ccc12` (stereo partly drawn) [Compound 43, 5-(4-((1-(4-(((1,3-trans)-3-((8-cyano-2-oxo-1,2-dihydroquinolin-5-yl)oxy)-2,2,4,4-tetramethylcyclobutyl)carbamoyl)phenyl)piperidin-4-yl)methyl)piperazin-1-yl)-N-((S)-2,6-dioxopiperidin-3-yl)picolinamide], the values for the GI50 with LNCAP cells and in the assay on VCAP cells were greater than 500 nM and 50 to 500 nM, respectively.

Consider `CC1(C)C(NC(=O)c2ccc(N3CCC(CN4CCN(c5ccc6c(c5)C(=O)N(C5CCC(=O)NC5=O)C6=O)CC4)CC3)cc2)C(C)(C)C1Oc1ccc(C#N)c2[nH]c(=O)ccc12` (stereo not drawn) [Compound 20, N-((1,3-trans)-3-((8-cyano-2-oxo-1,2-dihydroquinolin-5-yl)oxy)-2,2,4,4-tetramethylcyclobutyl)-4-(4-((4-(2-(2,6-dioxopiperidin-3-yl)-1,3-dioxoisoindolin-5-yl)piperazin-1-yl)methyl)piperidin-1-yl)benzamide], for which the values for the GI50 with LNCAP cells and in the assay with VCAP cells were greater than 500 nM and 50 to 500 nM, respectively.

The values are drawn from US20240190842A1, “SUBSTITUTED QUINOLINONE-8-CARBONITRILE DERIVATIVES HAVING ANDROGEN DEGRADATION ACTIVITY AND USES THEREOF” (Accutar Biotechnology Inc., priority 2022, published 2024).
